Key:
[1] = system: entorhinal cortex (EC) slices; experiment: Low Mg2+ (Mg2+-free) in vitro model of epilepsy: frequency of epileptiform events; type: cell-based, Wistar rats; details: 10 μM non-liposomal, 15 min wash-in; n=4 slices
Description: In the ‘low Mg^2+’ in vitro model of epilepsy the susceptibility of the entorhinal cortex (EC) to seizure activity is exploited by acutely bathing EC slices in Mg^2+-free artificial cerebrospinal fluid (ACSF). The removal of Mg^2+ from the extracellular environment consequently removes the normal Mg^2+ block on the N-Methyl-D-aspartic acid (NMDA) receptor. […]
Recordings from the tissue chamber were made using Ag/AgCl pellet electrodes (Harvard Apparatus, UK). The signal was collected on a chart recorder (Semat, UK) or digitally recorded (Neurolog, UK). […] Digitally recorded signals were amplified (×100 gain) and high-pass filtered (8.9 Hz cut-off). […] Drugs were applied via the perfusate (Mg^2+-free ACSF) and the frequency of epileptiform events (SLEs or LRDs) were measured before and during drug application. […]
To determine the effect of control drug solutions on the frequency of epileptiform activity, the frequency of events 30 min (in most cases) prior to drug application (pre-drug) was compared with the frequency of events during the wash-in period (15 min). For the drug delivered in liposomes, in addition to the frequency of pre-drug events and during wash-in, the frequency of events during 30 min immediately after the application of the ultrasound trigger was also quantified. […]

[2] = in vivo; cited from earlier work

Compound	reduction in epileptiform activity [1]	fraction crossing the blood-brain barrier [2]
NCc1cc(O)no1 [muscimol, 5-(aminomethyl)-isoxazol-3-ol]	85%±14	
N[C@@H](Cc1ccc(O)c(O)c1)C(=O)O [levodopa]		5-10%
